The text below walks through data of patent publication US20160095855A1, “USE OF A POLYMORPH OF FLIBANSERIN FOR TREATING DISEASE” (Sprout Pharmaceuticals, Inc., priority 2001, published 2016).

The nature of data set [1]: stability under mechanical stress produced by grinding. Type of data set: physicochemical. The following applies: solid state, crystalline modification of free base.
For a further data set, the system named is 5-HT2-receptor. The following applies: qualitative background statement; cited from earlier work.
Another data set deals with T1, 5-HT1A receptor (Homo sapiens, UniProt P08908).
T1 sequence (P08908 1-422): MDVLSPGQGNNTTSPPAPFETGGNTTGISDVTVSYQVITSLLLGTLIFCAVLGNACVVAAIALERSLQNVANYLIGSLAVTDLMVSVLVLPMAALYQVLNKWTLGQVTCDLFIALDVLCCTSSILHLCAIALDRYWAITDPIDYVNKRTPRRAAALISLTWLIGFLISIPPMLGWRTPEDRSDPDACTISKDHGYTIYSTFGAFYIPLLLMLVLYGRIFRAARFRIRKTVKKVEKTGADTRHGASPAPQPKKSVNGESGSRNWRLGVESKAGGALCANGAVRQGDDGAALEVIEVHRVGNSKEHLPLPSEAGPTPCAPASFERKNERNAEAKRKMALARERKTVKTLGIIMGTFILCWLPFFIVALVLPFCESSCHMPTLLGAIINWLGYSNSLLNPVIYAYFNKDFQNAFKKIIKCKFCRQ
The following applies: qualitative background statement; cited from earlier work.

In the case of `O=c1[nH]c2ccccc2n1CCN1CCN(c2cccc(C(F)(F)F)c2)CC1` [polymorph B, 1-[2-(4-(3-trifluoromethyl-phenyl)piperazin-1-yl)ethyl]-2,3-dihydro-1H-benzimidazol-2-one], the “stability under the effects of mechanical stress produced by grinding” value in data set [1] is listed as “little stability”.
The same measure, in the same setting: to `O=c1[nH]c2ccccc2n1CCN1CCN(c2cccc(C(F)(F)F)c2)CC1` [polymorph A, 1-[2-(4-(3-trifluoromethyl-phenyl)piperazin-1-yl)ethyl]-2,3-dihydro-1H-benzimidazol-2-one] belongs “fulfill the aforementioned stability requirements”.
On to `O=c1[nH]c2ccccc2n1CCN1CCN(c2cccc(C(F)(F)F)c2)CC1` [Flibanserin, 1-[2-(4-(3-trifluoromethyl-phenyl)piperazin-1-yl)ethyl]-2,3-dihydro-1H-benzimidazol-2-one], for which the “affinity for the 5-HT2-receptor” value with 5-HT2-receptor is “shows affinity”. Besides, the “affinity for the 5-HT1A receptor” value at 5-HT1A receptor is “shows affinity”.
